Measured values from US20110301122A1, “HETEROAROMATIC COMPOUNDS FOR USE AS HIF INHIBITORS” (BAYER SCHERING PHARMA AKTIENGESELLSCHAFT, priority 2008, published 2011).

Tested on: luciferase reporter under the control of an HIF-responsive sequence in HCT 116 cells
Experiment: HIF-luciferase assay
Assay type: cell-based
Conditions: Homo sapiens; HCT 116 cells stably transfected with HIF-responsive luciferase reporter; hypoxia chamber (1% O2), 24 h; luminescence (Bright Glo)
Method: HCT 116 cells were transfected in a stable manner with a plasmid which contained a luciferase reporter under the control of an HIF-responsive sequence. These cells were sown in microtitre plates [20,000 cells/cavity in RPMI 1640 medium with 10% foetal calf serum (FCS) and 100 μg/ml of hygromycin]. Incubation was carried out overnight under standard conditions (5% CO2, 21% O2, 37° C., moistened). The following morning the cells were incubated with various concentrations of the test substances (0-10 μmol/l) in a hypoxia chamber (1% O2). After 24 h, Bright Glo reagent (Promega, Wisconsin, USA) was added in accordance with the manufacturer'/s instructions, and after 5 min the luminescence was measured. Cells which were incubated under normoxia served as background controls.

| SMILES | IC50 [nM] |
| --- | --- |
| CN=S(=O)(c1ccc(-c2noc(-c3cc(C)n(Cc4ccc(NC)nc4)n3)n2)cc1)C(F)(F)F (racemic) [Example 187, N-Methyl-5-{[5-methyl-3-(3-{4-[N-methyl-S-(trifluoromethyl)sulphonimidoyl]phenyl}-1,2,4-oxa-diazol-5-yl)-1H-pyrazol-1-yl]methyl}pyridin-2-amine] | 0.6 |
| CNc1ccc(Cn2nc(-c3nc(-c4ccc(S(=N)(=O)C(F)(F)F)cc4)no3)cc2C)cn1 (racemic) [Example 188, N-Methyl-5-{[5-methyl-3-(3-{4-[S-(trifluoromethyl)sulphonimidoyl]phenyl}-1,2,4-oxadiazol-5-yl)-1H-pyrazol-1-yl]methyl}pyridin-2-amine] | 1 |
| CNc1ccc(Cn2nc(-c3nc(-c4ccc(OC(F)(F)F)cc4)no3)cc2C)cn1 [Example 24, N-Methyl-5-[(5-methyl-3-{3-[4-(trifluoromethoxy)phenyl]-1,2,4-oxadiazol-5-yl}-1H-pyrazol-1-yl)methyl]pyridin-2-amine] | 1 |
| Cc1cc(-c2nc(-c3ccc(OC(F)(F)F)cc3)no2)nn1Cc1ccc(NCCCO)nc1 [Example 25] | 8 |
| Cc1cc(-c2nc(-c3ccc(OC(F)(F)F)cc3)no2)nn1Cc1ccc(NCCO)nc1 [Example 29] | 10 |
| Cc1cc(-c2nc(-c3ccc(OC(F)(F)F)cc3)no2)nn1Cc1ccnc(N(CCO)CCO)c1 [Example 33] | 30 |
| Cc1cc(-c2nc(-c3ccc(C(C)(C)C)cc3)no2)cn1Cc1ccc(Cl)nc1 [Example 72, 5-({4-[3-(4-tert-Butylphenyl)-1,2,4-oxadiazol-5-yl]-2-methyl-1H-pyrrol-1-yl}methyl)-2-chloro-pyridine] | 10 |
| Cc1ccc(Cn2cc(-c3nc(-c4ccc(S(=O)(=O)C(F)(F)F)cc4)no3)cc2C)cc1 [Example 79] | 4 |
| Cc1ccc(Cn2cc(-c3nc(-c4ccc(C5(F)COC5)cc4)no3)cc2C)cc1 [Example 81] | 10 |
| Cc1ccc(Cc2cc(-c3nc(-c4ccc(C(C)(C)C)cc4)no3)nn2C)cc1 [Example 94] | 20 |
| Cc1cc(-c2nc(-c3ccc(OC(F)(F)F)cc3)no2)cn1Cc1ccc(NCCO)nc1 [Example 100, 2-({5-[(2-Methyl-4-{3-[4-(trifluoromethoxy)phenyl]-1,2,4-oxadiazol-5-yl}-1H-pyrrol-1-yl)-methyl]pyridin-2-yl}amino)ethanol] | 9 |
| CNc1ccc(Cn2nc(-c3nc(-c4ccc(C(C)(C)C(F)(F)F)cc4)no3)cc2C)cn1 [Example 121] | 0.4 |
| CNc1ccc(Cn2nc(-c3nc(-c4ccc(C5(F)CCC5)cc4)no3)cc2C)cn1 [Example 133] | 1.5 |
| CNc1ccc(Cn2nc(-c3nc(-c4ccc(C5(OC)CCC5)cc4)no3)cc2C)cn1 [Example 134] | 2 |
| Cc1cc(-c2nc(-c3ccc(OC(F)(F)F)cc3)no2)nn1Cc1ccc(N)nc1 [Example 135, 5-[(5-Methyl-3-{3-[4-(trifluoromethoxy)phenyl]-1,2,4-oxadiazol-5-yl}-1H-pyrazol-1-yl)methyl]-pyridin-2-amine] | 4 |
| CNc1ccc(Cn2nc(-c3nc(-c4ccc(C5CCOCC5)cc4)no3)cc2C)cn1 [Example 166, N-Methyl-5-[(5-methyl-3-{3-[4-(tetrahydro-2H-pyran-4-yl)phenyl]-1,2,4-oxadiazol-5-yl}-1H-pyrazol-1-yl)methyl]pyridin-2-amine] | 2 |
| CNc1ccc(Cn2nc(-c3nc(-c4ccc(C(C)(C)C)cc4)no3)cc2C)cn1 [Example 170, 5-({3-[3-(4-tert-Butylphenyl)-1,2,4-oxadiazol-5-yl]-5-methyl-1H-pyrazol-1-yl}methyl)-N-methyl-pyridin-2-amine] | 0.3 |
| CNc1ccc(Cn2nc(-c3nc(-c4ccc(C5(COC)CCC5)cc4)no3)cc2C)cn1 [Example 171, 5-{[3-(3-{4-[1-(Methoxymethyl)cyclobutyl]phenyl}-1,2,4-oxadiazol-5-yl)-5-methyl-1H-pyrazol-1-yl]methyl}-N-methylpyridin-2-amine] | 0.4 |
| CNc1ccc(Cn2nc(-c3nc(-c4ccc([Si](C)(C)C)cc4)no3)cc2C)cn1 [Example 178, N-Methyl-5-[(5-methyl-3-{3-[4-(trimethylsilyl)phenyl]-1,2,4-oxadiazol-5-yl}-1H-pyrazol-1-yl)-methyl]pyridin-2-amine] | 0.6 |
| CCNc1ccc(Cn2nc(-c3nc(-c4ccc([Si](C)(C)C)cc4)no3)cc2C)cn1 [Example 180, N-Ethyl-5-[(5-methyl-3-{3-[4-(trimethylsilyl)phenyl]-1,2,4-oxadiazol-5-yl}-1H-pyrazol-1-yl)-methyl]pyridin-2-amine] | 1 |
| CNc1ccc(Cn2nc(-c3nc(-c4ccc(OC(F)(F)F)c(Cl)c4)no3)cc2C)cn1 [Example 181, 5-[(3-{3-[3-Chloro-4-(trifluoromethoxy)phenyl]-1,2,4-oxadiazol-5-yl}-5-methyl-1H-pyrazol-1-yl)-methyl]-N-methylpyridin-2-amine] | 2 |
| CNc1ccc(Cn2nc(-c3nc(-c4ccc(OC(F)(F)F)c(F)c4)no3)cc2C)cn1 [Example 182, 5-[(3-{3-[3-Fluoro-4-(trifluoromethoxy)phenyl]-1,2,4-oxadiazol-5-yl}-5-methyl-1H-pyrazol-1-yl)-methyl]-N-methylpyridin-2-amine] | 2 |
| CNc1ccc(Cn2nc(-c3nc(-c4ccc(C5(C(F)(F)F)CC5)cc4)no3)cc2C)cn1 [Example 183, N-Methyl-5-{[5-methyl-3-(3-{4-[1-(trifluoromethyl)cyclopropyl]phenyl}-1,2,4-oxadiazol-5-yl)-1H-pyrazol-1-yl]methyl}pyridin-2-amine] | 0.6 |
| CNc1ccc(Cn2nc(-c3nc(-c4ccc(CN(C(C)C)C(C)C)cc4)no3)cc2C)cn1 [Example 184, 5-{[3-(3-{4-[(Diisopropylamino)methyl]phenyl}-1,2,4-oxadiazol-5-yl)-5-methyl-1H-pyrazol-1-yl]-methyl}-N-methylpyridin-2-amine] | 2 |
| CNc1ccc(Cn2cc(-c3nc(-c4ccc(C(C)(C)C(F)(F)F)cc4)no3)cc2C)cn1 [Example 196, N-Methyl-5-[(2-methyl-4-{3-[4-(1,1,1-trifluoro-2-methylpropan-2-yl)phenyl]-1,2,4-oxadiazol-5-yl}-1H-pyrrol-1-yl)methyl]pyridin-2-amine] | 0.5 |
